Reference: patent publication US20110111437A1, “Biomarkers For Prognosis of Pulmonary Diseases” (THE UNIVERSITY OF PITTSBURGH-OF THE COMMONWEALTH SYSTEM OF …, priority 2009, published 2011)

System: CD4+CD28null T cells from lung transplant recipients with BOS
Assay: Inhibition of proliferation by cyclosporine A (BrdU incorporation, anti-CD3 stimulation)
Assay type: cell-based, human
Settings: preliminary findings, n=2 subjects
Procedure: Inhibition of Proliferation by Cyclosporine A (CsA) Segregated CD28+ and CD28null CD4 T-cell subpopulations were individually cultured in duplicate wells coated with anti-CD3 monoclonal antibody (OKT3) (see above). Autologous nurse cells, positively selected during the initial CD4 T-cell isolations (see above) were added in a 3:1 nurse cell:CD4 T-cell ratio. In order to eliminate potential confounding by CD4dim monocytes, all CD4+ cells were depleted from the nurse cells (<<1% residual), prior to their use in cultures, by positive selection with anti-CD4-coated magnetic beads (Invitrogen, Carlsbad, Calif.). Cyclosporine (Novartis, East Hanover, N.J.) to a final concentration of 100 ng/ml was added to half the wells. Proliferation within the respective CD4 subpopulations were measured by bromodeoxyuridine (BrdU) incorporation, using reagents and methods supplied in a kit (BD Pharmingen). In brief, BrdU in a final concentration of 10 μM was added to cultures two days prior to their harvests. After 5±1 days of culture, cells were harvested from wells and stained with anti-CD4, fixed and permeabilized, and then incubated with anti-BrdU and 7-amino-actinomycin (7-AAD). The proportion of proliferating CD4+ T cells (BrdU+) among the viable cells (≧diploid DNA content) was determined by flow cytometry.

`C=CC[C@@H]1/C=C(\C)C[C@H](C)C[C@H](OC)[C@H]2O[C@@](O)(C(=O)C(=O)N3CCCC[C@H]3C(=O)O[C@H](/C(C)=C/[C@@H]3CC[C@@H](O)[C@H](OC)C3)[C@H](C)[C@@H](O)CC1=O)[C@H](C)C[C@@H]2OC` [tacrolimus] was tested, and the “resistance of the cells to the drug” value was “relatively resistant”.
